According to ChEMBL document CHEMBL5316282, “Small-Molecule Cyanamide Pan-TEAD·YAP1 Covalent Antagonists” (J Med Chem, 2023):
pIC50: −log10 of the molar value. Activity calls are given as the source filed them. The calls are words filed in the database; no cut-off is given here.

How the values were obtained:
MDA-MB-468 = experiment: Inhibition of TEAD in human MDA-MB-468 cells assessed as maximal inhibition of CTGF transcriptional level at 0.01 to 100 uM incubated for 24 hrs by qRT-PCR assay relative to control; format: cell-based; settings: dose 0.01-100 µM
[1] = target: T1, Transcriptional enhancer factor TEF-1 (Homo sapiens, UniProt P28347); experiment: Displacement of FAM- labeled YAP1 peptide (60 to 99 residues) from human TEAD1 (209 to 426 residues) expressed in Escherichia coli BL21 (DE3) cells incubated for 24 hrs by fluorescence polarization-based competitive binding assay; settings: for pIC50: read-out: IC50
[2] = target: T2, Transcriptional enhancer factor TEF-4 (Homo sapiens, UniProt Q15562); experiment: Displacement of FAM- labeled YAP1 peptide (60 to 99 residues) from human TEAD2 (217 to 447 residues) expressed in Escherichia coli BL21 (DE3) cells assessed as maximum inhibition at 0.2 to 100 uM incubated for 24 hrs by fluorescence polarization-based competitive binding assay relative to control; settings: dose 0.2-100 µM
[3] = target: T2, Transcriptional enhancer factor TEF-4; experiment: Displacement of FAM- labeled YAP1 peptide (60 to 99 residues) from human TEAD2 (217 to 447 residues) expressed in Escherichia coli BL21 (DE3) cells incubated for 24 hrs by fluorescence polarization-based competitive binding assay
[4] = Inhibition of TEAD in human MDA-MB-468 cells assessed as inhibition of CTGF transcriptional level incubated for 24 hrs by qRT-PCR assay; format: cell-based; settings: Homo sapiens, MDA-MB-468, 24 h; read-out: IC50
[5] = target: T3, Transcriptional enhancer factor TEF-3 (Homo sapiens, UniProt Q15561); experiment: Displacement of FAM- labeled YAP1 peptide (60 to 99 residues) from human TEAD4 (217 to 434 residues) expressed in Escherichia coli BL21 (DE3) cells incubated for 24 hrs by fluorescence polarization-based competitive binding assay; settings: for pIC50: read-out: IC50
[6] = target: T3, Transcriptional enhancer factor TEF-3; experiment: Inhibition of TEAD4 (unknown origin) transfected in human HEK293 cells co-transfected with renilla plasmid assessed as inhibition of transcriptional activity incubated for 24 hrs by dual Glo-luciferase reporter assay; format: cell-based; settings: for pIC50: read-out: IC50
[7] = target: Transcriptional enhancer factor TEF-5 (Homo sapiens, UniProt Q99594); experiment: Displacement of FAM- labeled YAP1 peptide (60 to 99 residues) from human TEAD3 (210 to 427 residues) expressed in Escherichia coli BL21 (DE3) cells incubated for 24 hrs by fluorescence polarization-based competitive binding assay
[8] = tested on: Transcriptional enhancer factor TEF-3 (Homo sapiens), Q15561 [C367S]; experiment: Displacement of FAM- labeled YAP1 peptide (60 to 99 residues) from human TEAD4 (217 to 434 residues) C367S mutant expressed in Escherichia coli BL21 (DE3) cells at 0.2 to 100 uM incubated for 24 hrs by fluorescence polarization-based competitive binding assay; settings: dose 0.2-100 µM
[9] = target: T3, Transcriptional enhancer factor TEF-3; experiment: Inhibition of TEAD4 (unknown origin) transfected in human HEK293 cells co-transfected with renilla plasmid assessed as maximum inhibition of transcriptional activity at 0.01 to 100 uM incubated for 24 hrs by dual Glo-luciferase reporter assay relative to control; format: cell-based; settings: dose 0.01-100 µM
[10] = target: T2, Transcriptional enhancer factor TEF-4; experiment: Inhibition of TEAD2 (unknown origin) transfected in human HEK293 cells co-transfected with renilla plasmid assessed as maximum inhibition of transcriptional activity at 10 uM incubated for 24 hrs by dual Glo-luciferase reporter assay relative to control; format: cell-based
[11] = target: T1, Transcriptional enhancer factor TEF-1; experiment: Inhibition of TEAD1 (unknown origin) transfected in human HEK293 cells co-transfected with renilla plasmid assessed as maximum inhibition of transcriptional activity at 10 uM incubated for 24 hrs by dual Glo-luciferase reporter assay relative to control; format: cell-based

T2 sequence (Q15562 whole entry, the tested form may be a part): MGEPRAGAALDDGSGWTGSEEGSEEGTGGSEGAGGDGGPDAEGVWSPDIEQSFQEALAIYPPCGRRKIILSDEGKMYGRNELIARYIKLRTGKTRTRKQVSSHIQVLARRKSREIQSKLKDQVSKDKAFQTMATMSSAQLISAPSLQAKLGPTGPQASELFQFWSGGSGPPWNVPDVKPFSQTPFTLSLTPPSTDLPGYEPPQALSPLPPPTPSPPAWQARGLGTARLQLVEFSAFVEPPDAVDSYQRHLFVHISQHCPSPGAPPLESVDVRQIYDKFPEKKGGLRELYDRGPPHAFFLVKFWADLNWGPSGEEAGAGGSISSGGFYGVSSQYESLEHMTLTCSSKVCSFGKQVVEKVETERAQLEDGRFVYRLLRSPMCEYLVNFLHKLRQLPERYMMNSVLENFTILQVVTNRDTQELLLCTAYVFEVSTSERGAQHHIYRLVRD
Chain of Transcriptional enhancer factor TEF-3 (Homo sapiens), Q15561 [C367S] (Q15561 whole entry C367S, the tested form may be a part): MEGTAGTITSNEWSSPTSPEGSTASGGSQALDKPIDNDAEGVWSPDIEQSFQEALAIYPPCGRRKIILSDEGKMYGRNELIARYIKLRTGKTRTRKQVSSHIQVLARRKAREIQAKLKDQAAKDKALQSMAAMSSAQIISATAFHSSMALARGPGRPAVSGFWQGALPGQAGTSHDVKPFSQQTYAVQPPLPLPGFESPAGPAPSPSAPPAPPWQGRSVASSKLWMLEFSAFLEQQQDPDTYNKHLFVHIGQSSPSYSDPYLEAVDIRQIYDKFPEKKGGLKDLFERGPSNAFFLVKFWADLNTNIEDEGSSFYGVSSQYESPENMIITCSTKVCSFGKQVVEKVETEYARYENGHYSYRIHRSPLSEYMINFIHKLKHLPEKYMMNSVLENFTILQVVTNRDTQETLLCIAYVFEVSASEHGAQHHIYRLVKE
T3 sequence (Q15561 whole entry, the tested form may be a part): as the sequence (Q15561 whole entry C367S, the tested form may be a part) above, with S367C counted along it
T1 sequence (P28347 whole entry, the tested form may be a part): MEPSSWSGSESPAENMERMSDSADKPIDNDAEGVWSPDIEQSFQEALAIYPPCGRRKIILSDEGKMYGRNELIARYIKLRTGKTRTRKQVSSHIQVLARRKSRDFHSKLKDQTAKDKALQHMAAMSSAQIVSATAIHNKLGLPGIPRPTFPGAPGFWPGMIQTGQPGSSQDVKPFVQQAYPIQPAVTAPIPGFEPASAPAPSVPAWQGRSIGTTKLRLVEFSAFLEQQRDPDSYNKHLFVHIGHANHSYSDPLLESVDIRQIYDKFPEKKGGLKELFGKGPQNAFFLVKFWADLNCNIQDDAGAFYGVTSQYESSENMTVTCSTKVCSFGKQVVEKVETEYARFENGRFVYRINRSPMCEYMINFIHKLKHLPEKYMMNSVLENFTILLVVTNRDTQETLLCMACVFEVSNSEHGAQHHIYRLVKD
Chain of Transcriptional enhancer factor TEF-5 (Q99594 whole entry, the tested form may be a part): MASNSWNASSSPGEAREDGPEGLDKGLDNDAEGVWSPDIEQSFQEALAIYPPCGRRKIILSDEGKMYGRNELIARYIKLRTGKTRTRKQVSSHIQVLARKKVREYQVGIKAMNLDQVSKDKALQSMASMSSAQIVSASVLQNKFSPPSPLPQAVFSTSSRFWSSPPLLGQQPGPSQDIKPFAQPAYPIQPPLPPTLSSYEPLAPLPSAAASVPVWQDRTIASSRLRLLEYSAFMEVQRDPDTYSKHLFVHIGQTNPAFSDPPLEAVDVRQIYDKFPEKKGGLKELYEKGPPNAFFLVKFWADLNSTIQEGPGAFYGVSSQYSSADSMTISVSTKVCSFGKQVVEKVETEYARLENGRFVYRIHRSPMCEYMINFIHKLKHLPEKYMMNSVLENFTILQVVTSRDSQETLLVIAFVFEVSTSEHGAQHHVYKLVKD

SMILES	Imax (MDA-MB-468) [%]	IC50 [1]	Imax [2] [%]	pIC50 [3]	pIC50 [4]	IC50 [5]	IC50 ([6]; hek293)	IC50 [7]	pIC50 [1]	inhibition [8]	pIC50 [5]	pIC50 [6]	Imax [9] [%]	inhibition [10]	inhibition [11]
N#CN1CC2CCCC(Nc3ccccc3C(F)(F)F)C2C1 (configuration not stated)	41.1	Not Active	20	5.12	5.66	Not Active	Not Active	Not Active							
N#CN1Cc2cccc(Nc3ccccc3C(F)(F)F)c2C1	36.7		40	5.68	5.26			Not Active	5.89	inactive	5.27	4.98	98.7		
COc1ccc2c(c1Nc1cccc(C(F)(F)F)c1)CN(C#N)C2	45.3		42	5.77	6.52			Not Active	6.52	inactive	6.70	6.52	41.3	50%	inactive
N#CN1Cc2ccc(F)c(Nc3cccc(C(F)(F)F)c3)c2C1	50.3		37	5.62	6.52			Not Active	6.70	inactive	6.22	6.15	35.6	Active	Active
